From US10150757B2, “Quinazolinone derivatives as PARP inhibitors” (Janssen Pharmaceutica NV, priority 2004, dated 2018)

What follows are compounds tested against T1, TANK-2 enzyme (Homo sapiens, UniProt Q9H2K2) (assay: In vitro scintillation proximity assay (SPA) for TANK-2 inhibitory activity). Details: auto-poly(ADP-ribosyl)ation; 96-well plate results if available, otherwise 384-well; read-out: in vitro SPA assay TANK-2 pIC50 (converted).
T1 construct: made in house
T1 sequence (Q9H2K2 1-1166): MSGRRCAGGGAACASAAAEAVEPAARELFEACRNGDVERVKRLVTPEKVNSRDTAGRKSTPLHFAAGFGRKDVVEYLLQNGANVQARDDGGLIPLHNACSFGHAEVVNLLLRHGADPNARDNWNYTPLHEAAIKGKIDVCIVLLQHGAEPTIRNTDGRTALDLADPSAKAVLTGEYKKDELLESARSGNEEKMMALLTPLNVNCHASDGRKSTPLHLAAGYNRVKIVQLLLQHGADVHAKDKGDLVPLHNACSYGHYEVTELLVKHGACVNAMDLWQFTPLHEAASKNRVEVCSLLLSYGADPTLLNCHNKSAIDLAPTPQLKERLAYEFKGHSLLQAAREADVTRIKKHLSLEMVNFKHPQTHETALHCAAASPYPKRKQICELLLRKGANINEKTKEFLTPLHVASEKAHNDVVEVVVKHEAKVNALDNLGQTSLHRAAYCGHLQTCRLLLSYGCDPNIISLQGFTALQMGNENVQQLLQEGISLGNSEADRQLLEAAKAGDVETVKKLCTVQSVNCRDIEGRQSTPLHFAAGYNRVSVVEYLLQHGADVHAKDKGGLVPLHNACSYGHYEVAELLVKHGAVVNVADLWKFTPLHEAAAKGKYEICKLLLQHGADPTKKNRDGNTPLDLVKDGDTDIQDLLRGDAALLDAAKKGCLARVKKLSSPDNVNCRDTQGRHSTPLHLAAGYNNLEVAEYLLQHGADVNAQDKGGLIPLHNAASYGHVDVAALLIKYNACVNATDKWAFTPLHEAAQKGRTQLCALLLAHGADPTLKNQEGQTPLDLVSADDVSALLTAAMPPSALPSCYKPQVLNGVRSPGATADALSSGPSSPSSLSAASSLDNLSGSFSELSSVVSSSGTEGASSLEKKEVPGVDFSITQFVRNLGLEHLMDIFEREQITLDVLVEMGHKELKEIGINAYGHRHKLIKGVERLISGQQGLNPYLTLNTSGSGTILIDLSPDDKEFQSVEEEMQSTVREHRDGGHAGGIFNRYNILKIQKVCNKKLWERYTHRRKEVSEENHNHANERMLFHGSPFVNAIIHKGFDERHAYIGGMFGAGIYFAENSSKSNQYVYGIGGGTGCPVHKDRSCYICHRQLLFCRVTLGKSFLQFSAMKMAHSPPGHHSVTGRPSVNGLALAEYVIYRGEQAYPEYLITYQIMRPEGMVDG
Format: biochemical
Method: In Vitro Scintillation Proximity Assay (SPA) for TANK-2 Inhibitory Activity
Compounds of the present invention were tested in an in vitro assay based on SPA technology with Ni Flash plates (96 or 384 well).
In principle, the assay relies upon SPA technology for the detection of auto-poly(ADP-ribosyl)ation of TANK-2 protein using [^3H]-nicotinamide adenine dinucleotide ([^3H]-NAD^+) as ADP-ribosyl donor.
A stock solution of [^3H]-NAD^+/NAD was made by adding 64.6 μl of [^3H]-NAD^+ (0.1 mCi/ml, supplier: Perkin Elmer) and 46.7 μl NAD-stock (10.7 mM, stored at −20° C., supplier Roche) to 1888.7 μl assay buffer (60 mM Tris/HCl, pH 7.4; 0.9 mM DTT; 6 mM MgCl2). The TANK-2 enzyme was produced as described in EP1238063. 60 μl of assay buffer, together with 1 μl of compound in DMSO, 20 μl of [^3H]-NAD^+/NAD and 20 μl of TANK-2 enzyme (final concentration 6 μg/ml) was added per well into a 96-well Ni-coated flash plate (Perkin Elmer). After incubation of the mixture for 120 min. at room temperature, the reaction was terminated by adding 60 μl of stop solution (42.6 mg NAD in 6 ml H2O). The plates were covered with a plate sealer and placed in a TopCountNXT™ (Packard) for scintillation counting. Values were expressed as counts per minute (cpm). For each experiment, controls (containing TANK-2 enzyme and DMSO without compound), a blank incubation (containing DMSO but no TANK-2 enzyme or compound) and samples (containing TANK-2 enzyme and compound dissolved in DMSO) were run in parallel. All compounds tested were dissolved and eventually further diluted in DMSO. In first instance, compounds were tested at a concentration of 10^−5M. […] In each test, the blank value was subtracted from both the control and the sample values. The control sample represented maximal TANK-2 enzyme activity. For each sample, the amount of cpm was expressed as a percentage of the mean cpm value of the controls. When appropriate, IC50-values (concentration of the drug, needed to reduce the TANK-2 enzyme activity to 50% of the control) were computed using linear interpolation between the experimental points just above and below the 50% level. Herein the effects of test compounds are expressed as pIC50 (the negative log value of the IC50-value). As reference compounds, 3-aminobenzamide and 4-amino-1,8-naphthalimide were included to validate the SPA assay. Herein the assay was described using 96-well plates. In the assay using 384-well plates the same final concentrations were used and volumes were adapted.

IC50 [µM] | Structure (SMILES)
> 10 | O=c1[nH]c(NCCCN2CCC(c3noc4cc(F)ccc34)CC2)nc2ccccc12 [Compound 26]
> 10 | O=C(c1ccc(F)cc1)C1CCN(CCNc2nc3ccccc3c(=O)[nH]2)CC1 [Compound 46]
> 10 | O=c1[nH]c(NCCCN2CCC(n3c(=O)[nH]c4ccccc43)CC2)nc2ccccc12 [Compound 29]
0.746 | Nc1c(Cl)cc(C(=O)OCC2CCN(CCNc3nc4ccccc4c(=O)[nH]3)CC2)c2c1OCCO2 [Compound 7]
> 10 | O=c1[nH]c(NCCN2CCC(c3n[nH]c4cc(F)ccc34)CC2)nc2ccccc12 [Compound 21]
> 10 | O=c1[nH]c(NCCCN2CCN(c3nsc4ccccc34)CC2)nc2ccccc12 [Compound 24]
> 10 | Cc1ccc2nc(NCCN3CCN(c4n[nH]c5ccccc45)CC3)[nH]c(=O)c2c1 [Compound 43]
> 10 | CC1(C)Cc2c(N)c(Cl)cc(C(=O)NC3CCN(CCCCNc4nc(O)c5ccccc5n4)CC3)c2O1 [Compound 5]
> 10 | O=c1[nH]c(NCCN2CCN(c3n[nH]c4cc(F)ccc34)CC2)nc2ccccc12 [Compound 41]
> 10 | O=c1[nH]c(NCCN2CCN(c3n[nH]c4ccccc34)CC2)nc2cc(Cl)ccc12 [Compound 44]
> 10 | O=c1[nH]c(NCCN2CCC(c3n[nH]c4cc(F)ccc34)CC2)nc2ccc(Cl)cc12 [Compound 36]
> 10 | O=c1[nH]c(NCCCN2CCC(c3n[nH]c4cc(F)ccc34)CC2)nc2ccccc12 [Compound 25]
0.537 | O=c1[nH]c(NCCN2CCN(c3nc4ccccc4c(=O)[nH]3)CC2)nc2ccccc12 [Compound 38]
1.77 | CCc1cc2cc(CN3CCN(CCNc4nc5ccccc5c(=O)[nH]4)CC3)ccc2nc1OC [Compound 3]
7.96 | O=c1[nH]c(NCCCN2CCN(c3n[nH]c4cc(F)ccc34)CC2)nc2ccccc12 [Compound 27]
> 10 | O=c1[nH]c(NCCN2CCN(c3n[nH]c4ccccc34)CC2)nc2ccc(Cl)cc12 [Compound 1]

IC50 [µM] | Structure (SMILES)
0.938 | O=c1[nH]c(NCCN2CCC(Nc3n[nH]c(=O)c4ccccc34)CC2)nc2ccccc12 [Compound 33]
8.45 | O=c1[nH]c(NCCCN2CCN(c3n[nH]c4ccccc34)CC2)nc2ccccc12 [Compound 22]
> 10 | O=c1[nH]c(NCCCN2CCC(c3c[nH]c4ccccc34)CC2)nc2ccccc12 [Compound 20]
> 10 | O=c1[nH]c(NCCCN2CCC(Nc3cccc4ccccc34)CC2)nc2ccccc12 [Compound 42]
> 10 | O=C(NC1CCN(CCCNc2nc3ccccc3c(=O)[nH]2)CC1)c1ccccc1 [Compound 23]
> 10 | CO[C@@H]1CN(CCCNc2nc(O)c3ccccc3n2)CCN1NC(=O)c1cc(Cl)c(N)c2c1OC(C)(C)C2 [Compound 8]
> 10 | Nc1c(Cl)cc(C(=O)NC2CCN(CCCNc3nc(O)c4ccccc4n3)CC2)c2c1CCO2 [Compound 45]
> 10 | Cc1ccc2nc(NCCN3CCC(c4n[nH]c5cc(F)ccc45)CC3)[nH]c(=O)c2c1 [Compound 37]
> 10 | O=c1nc(NCCCN2CCC(Nc3nccc4ccccc34)CC2)[nH]c2ccccc12 [Compound 40]
> 10 | O=c1[nH]c(NCCN2CCC(c3n[nH]c4cc(F)ccc34)CC2)nc2cc(Cl)ccc12 [Compound 31]
> 10 | Cc1cccc2nc(NCCN3CCN(c4n[nH]c5ccccc45)CC3)[nH]c(=O)c12 [Compound 39]
> 10 | CCCCn1cc(C2CCN(CCCNc3nc4ccccc4c(=O)[nH]3)CC2)c2ccccc21 [Compound 28]
> 10 | CO[C@H]1CN(CCCNc2nc3ccccc3c(=O)[nH]2)CC[C@H]1NC(=O)c1cc(Cl)cc2c1OC(C)(C)C2 [Compound 18]
> 10 | CC1(C)Cc2c(N)c(Cl)cc(C(=O)NC3CCN(CCCNc4nc(O)c5ccccc5n4)CC3)c2O1 [Compound 4]
> 10 | CO[C@@H]1CN(CCCNc2nc(O)c3ccccc3n2)CC[C@@H]1NC(=O)c1cc(Cl)c(N)c2c1OCCC2 [Compound 6]
0.794 | O=c1[nH]c(NCCN2CCC(Nc3nc4ccccc4c(=O)[nH]3)CC2)nc2ccccc12 [Compound 30]

Structure (SMILES) | IC50 [µM]
O=c1[nH]c(NCCCN2CCC(O)(c3ccc(Cl)cc3)CC2)nc2ccccc12 [Compound 2] | > 10
